{"source": "ChEMBL document CHEMBL5465560", "about": "“Selectivity Literature for EUbOPEN Chemogenomic Library” (2024)", "key": {"[1]": {"biological_target": "T1, Histone-arginine methyltransferase CARM1 (Homo sapiens) (UniProt Q86X55)", "T1 sequence (whole entry)": "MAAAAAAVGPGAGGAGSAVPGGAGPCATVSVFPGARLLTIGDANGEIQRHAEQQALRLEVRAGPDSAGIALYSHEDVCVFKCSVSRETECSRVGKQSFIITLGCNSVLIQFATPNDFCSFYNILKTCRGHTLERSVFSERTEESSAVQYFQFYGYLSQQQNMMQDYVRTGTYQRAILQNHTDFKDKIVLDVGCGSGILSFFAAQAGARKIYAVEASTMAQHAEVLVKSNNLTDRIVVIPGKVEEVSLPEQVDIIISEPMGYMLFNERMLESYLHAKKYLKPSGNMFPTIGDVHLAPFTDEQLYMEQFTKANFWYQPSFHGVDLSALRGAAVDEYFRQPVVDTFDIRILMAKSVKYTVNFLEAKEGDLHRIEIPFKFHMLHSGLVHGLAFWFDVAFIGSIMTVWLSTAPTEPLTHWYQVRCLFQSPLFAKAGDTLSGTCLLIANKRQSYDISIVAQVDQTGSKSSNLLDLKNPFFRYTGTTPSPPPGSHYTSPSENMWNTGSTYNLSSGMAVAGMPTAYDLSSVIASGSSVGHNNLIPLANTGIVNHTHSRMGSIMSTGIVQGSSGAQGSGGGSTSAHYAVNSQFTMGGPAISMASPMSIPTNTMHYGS", "conditions": "KMS-28BM, at 3 µM"}, "[2]": {"biological_target": "Non-receptor tyrosine-protein kinase TYK2 (Homo sapiens, UniProt P29597)", "sequence (P29597 whole entry)": "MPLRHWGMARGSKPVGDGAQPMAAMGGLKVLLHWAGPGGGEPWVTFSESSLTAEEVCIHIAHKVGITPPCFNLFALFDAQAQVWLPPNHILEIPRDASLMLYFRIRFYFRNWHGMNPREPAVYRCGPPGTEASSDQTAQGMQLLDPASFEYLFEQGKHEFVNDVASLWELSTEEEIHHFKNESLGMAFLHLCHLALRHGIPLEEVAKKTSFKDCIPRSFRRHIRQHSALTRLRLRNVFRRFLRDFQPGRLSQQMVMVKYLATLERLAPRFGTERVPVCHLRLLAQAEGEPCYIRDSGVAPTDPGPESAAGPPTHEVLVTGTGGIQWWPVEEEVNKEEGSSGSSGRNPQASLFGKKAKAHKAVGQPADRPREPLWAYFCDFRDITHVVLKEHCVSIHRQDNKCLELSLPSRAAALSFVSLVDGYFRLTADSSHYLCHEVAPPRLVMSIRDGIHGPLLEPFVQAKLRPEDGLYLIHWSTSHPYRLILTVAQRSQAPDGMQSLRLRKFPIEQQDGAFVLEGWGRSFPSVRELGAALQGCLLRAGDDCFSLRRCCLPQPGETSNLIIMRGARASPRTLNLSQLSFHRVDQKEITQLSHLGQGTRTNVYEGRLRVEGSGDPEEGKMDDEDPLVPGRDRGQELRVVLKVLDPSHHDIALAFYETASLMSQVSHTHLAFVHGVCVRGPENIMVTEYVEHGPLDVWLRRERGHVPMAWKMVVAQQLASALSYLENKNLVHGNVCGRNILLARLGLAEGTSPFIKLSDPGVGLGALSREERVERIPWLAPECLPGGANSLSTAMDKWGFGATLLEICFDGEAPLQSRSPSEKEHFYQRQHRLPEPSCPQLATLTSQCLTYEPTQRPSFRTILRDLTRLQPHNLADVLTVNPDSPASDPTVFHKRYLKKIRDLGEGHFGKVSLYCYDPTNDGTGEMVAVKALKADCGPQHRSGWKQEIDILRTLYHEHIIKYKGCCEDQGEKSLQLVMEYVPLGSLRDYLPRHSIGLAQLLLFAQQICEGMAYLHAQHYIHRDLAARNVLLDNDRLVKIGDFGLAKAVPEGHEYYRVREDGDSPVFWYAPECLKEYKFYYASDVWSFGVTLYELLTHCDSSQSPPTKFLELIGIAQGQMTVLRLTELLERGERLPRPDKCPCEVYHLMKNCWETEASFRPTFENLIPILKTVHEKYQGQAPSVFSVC", "assay": "Selectivity interaction (KinomeScan (DiscoverX)) EUB0000695a TYK2", "conditions": "at 100 nM"}, "[3]": {"biological_target": "T2, Serine/threonine-protein kinase NLK (Homo sapiens) (UniProt Q9UBE8)", "T2 sequence (whole entry)": "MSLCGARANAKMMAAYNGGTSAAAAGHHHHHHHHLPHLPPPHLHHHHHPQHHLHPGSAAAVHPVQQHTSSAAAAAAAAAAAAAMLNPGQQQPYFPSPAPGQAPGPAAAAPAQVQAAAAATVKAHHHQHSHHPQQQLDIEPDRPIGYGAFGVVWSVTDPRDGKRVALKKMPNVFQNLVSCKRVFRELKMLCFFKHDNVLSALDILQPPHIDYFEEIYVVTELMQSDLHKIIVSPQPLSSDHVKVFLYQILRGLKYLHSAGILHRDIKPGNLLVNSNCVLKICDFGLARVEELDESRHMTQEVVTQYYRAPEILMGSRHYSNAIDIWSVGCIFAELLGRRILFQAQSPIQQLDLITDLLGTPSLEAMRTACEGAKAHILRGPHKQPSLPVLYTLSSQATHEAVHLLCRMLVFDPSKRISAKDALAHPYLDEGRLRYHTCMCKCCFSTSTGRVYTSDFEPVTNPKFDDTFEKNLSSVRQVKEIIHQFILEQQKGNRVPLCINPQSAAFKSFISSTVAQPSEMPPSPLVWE", "assay": "Selectivity interaction (KinomeScan (DiscoverX)) EUB0000695a NLK", "conditions": "at 100 nM"}, "[4]": {"biological_target": "Ribosomal protein S6 kinase alpha-1 (Homo sapiens, UniProt Q15418)", "sequence (Q15418 whole entry)": "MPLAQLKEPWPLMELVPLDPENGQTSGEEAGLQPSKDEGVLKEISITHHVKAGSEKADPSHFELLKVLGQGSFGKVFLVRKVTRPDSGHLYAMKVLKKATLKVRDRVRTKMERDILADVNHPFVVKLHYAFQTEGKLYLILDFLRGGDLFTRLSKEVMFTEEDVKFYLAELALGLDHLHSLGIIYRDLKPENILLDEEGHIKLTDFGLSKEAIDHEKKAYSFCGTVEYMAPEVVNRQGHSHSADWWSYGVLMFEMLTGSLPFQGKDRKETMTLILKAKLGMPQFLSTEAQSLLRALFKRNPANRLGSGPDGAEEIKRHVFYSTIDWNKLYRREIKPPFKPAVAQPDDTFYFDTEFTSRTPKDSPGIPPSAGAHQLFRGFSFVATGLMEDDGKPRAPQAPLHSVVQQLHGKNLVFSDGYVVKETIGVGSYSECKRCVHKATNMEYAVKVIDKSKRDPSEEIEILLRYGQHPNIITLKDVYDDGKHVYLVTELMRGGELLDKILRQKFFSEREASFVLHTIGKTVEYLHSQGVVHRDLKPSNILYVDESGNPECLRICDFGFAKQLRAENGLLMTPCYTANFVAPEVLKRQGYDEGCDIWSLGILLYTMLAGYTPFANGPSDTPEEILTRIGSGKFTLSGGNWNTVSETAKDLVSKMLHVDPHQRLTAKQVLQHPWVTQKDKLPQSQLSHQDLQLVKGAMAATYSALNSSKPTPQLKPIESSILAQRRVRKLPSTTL", "assay": "Selectivity interaction (KinomeScan (DiscoverX)) EUB0001079a RPS6KA1", "conditions": "at 1 µM"}, "[5]": {"biological_target": "T3, Peregrin (Homo sapiens) (UniProt P55201)", "T3 sequence (whole entry)": "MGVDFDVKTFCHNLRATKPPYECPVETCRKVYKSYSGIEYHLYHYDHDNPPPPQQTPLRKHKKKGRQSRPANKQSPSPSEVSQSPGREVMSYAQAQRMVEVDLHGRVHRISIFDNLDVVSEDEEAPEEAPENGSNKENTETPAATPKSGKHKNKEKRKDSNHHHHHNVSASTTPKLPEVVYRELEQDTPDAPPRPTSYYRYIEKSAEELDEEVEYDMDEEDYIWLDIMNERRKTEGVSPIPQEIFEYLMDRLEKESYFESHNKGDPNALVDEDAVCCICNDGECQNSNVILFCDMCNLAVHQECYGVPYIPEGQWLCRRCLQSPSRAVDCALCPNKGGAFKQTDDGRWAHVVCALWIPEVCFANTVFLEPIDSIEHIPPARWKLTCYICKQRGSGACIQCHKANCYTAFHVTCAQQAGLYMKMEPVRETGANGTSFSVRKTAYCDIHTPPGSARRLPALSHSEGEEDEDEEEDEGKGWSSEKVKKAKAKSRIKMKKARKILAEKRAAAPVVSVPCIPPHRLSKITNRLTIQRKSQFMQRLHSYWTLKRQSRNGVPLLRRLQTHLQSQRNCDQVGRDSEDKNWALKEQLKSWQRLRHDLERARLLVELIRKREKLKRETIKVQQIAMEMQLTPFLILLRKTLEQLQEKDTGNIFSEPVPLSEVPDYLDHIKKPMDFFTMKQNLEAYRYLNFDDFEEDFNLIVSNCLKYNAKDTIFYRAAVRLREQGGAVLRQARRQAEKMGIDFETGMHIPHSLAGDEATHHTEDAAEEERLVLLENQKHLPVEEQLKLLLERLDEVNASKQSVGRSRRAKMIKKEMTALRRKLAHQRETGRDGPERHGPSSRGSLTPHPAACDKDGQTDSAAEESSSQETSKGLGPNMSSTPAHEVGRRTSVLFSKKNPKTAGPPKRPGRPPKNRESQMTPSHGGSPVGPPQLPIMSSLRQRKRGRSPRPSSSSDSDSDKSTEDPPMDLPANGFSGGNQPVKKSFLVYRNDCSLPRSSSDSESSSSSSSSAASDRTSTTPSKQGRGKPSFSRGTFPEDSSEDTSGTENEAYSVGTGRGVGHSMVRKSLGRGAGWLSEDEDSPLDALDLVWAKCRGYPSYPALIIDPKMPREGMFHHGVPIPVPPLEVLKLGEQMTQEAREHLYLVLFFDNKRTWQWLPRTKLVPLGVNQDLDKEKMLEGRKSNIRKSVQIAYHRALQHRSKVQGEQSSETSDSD", "assay": "Selectivity interaction (Bromodomain panel (DSF asssay)) EUB0000270b BRPF1"}, "[6]": {"biological_target": "DNA mismatch repair protein Msh6 (Homo sapiens) (UniProt P52701)", "sequence (P52701 whole entry, the tested form may be a part)": "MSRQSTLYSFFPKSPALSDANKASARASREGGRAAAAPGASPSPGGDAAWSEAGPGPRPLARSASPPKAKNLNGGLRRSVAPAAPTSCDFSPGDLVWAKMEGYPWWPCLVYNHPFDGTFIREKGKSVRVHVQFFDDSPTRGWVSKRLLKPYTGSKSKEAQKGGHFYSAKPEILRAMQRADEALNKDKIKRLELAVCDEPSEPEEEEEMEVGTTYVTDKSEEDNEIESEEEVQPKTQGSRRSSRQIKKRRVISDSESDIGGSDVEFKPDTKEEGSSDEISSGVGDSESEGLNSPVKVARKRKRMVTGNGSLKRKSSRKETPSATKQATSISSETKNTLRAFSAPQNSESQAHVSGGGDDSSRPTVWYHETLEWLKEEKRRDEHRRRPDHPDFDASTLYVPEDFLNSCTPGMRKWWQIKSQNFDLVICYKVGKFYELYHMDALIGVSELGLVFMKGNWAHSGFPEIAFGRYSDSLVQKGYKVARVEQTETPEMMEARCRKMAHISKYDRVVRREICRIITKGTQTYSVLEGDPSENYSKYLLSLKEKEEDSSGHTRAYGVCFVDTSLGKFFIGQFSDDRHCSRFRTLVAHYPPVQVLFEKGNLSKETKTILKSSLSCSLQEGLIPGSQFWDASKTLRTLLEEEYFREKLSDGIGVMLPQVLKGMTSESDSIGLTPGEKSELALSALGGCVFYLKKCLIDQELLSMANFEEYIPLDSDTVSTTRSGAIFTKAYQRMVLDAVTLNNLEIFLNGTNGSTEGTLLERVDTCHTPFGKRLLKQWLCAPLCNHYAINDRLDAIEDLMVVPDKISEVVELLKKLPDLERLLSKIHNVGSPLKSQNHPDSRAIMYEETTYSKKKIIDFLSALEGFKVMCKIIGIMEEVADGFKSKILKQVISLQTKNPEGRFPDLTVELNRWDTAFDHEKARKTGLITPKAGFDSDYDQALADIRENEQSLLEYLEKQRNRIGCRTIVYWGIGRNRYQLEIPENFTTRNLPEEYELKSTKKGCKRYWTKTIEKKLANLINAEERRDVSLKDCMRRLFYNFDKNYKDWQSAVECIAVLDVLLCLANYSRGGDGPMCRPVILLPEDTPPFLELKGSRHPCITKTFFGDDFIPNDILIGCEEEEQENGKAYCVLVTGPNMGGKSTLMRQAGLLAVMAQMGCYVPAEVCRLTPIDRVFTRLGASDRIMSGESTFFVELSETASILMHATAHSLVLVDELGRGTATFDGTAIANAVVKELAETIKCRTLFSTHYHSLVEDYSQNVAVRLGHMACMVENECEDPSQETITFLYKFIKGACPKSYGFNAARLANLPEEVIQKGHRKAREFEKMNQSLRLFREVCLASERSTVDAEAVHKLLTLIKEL", "assay": "Selectivity interaction (PWWP, WD40, and Tudor domain panel (DSLS measurements, literature)) EUB0000270b MSH6"}, "[7]": {"biological_target": "Calcium/calmodulin-dependent protein kinase type II subunit beta (Homo sapiens) (UniProt Q13554)", "sequence (Q13554 whole entry)": "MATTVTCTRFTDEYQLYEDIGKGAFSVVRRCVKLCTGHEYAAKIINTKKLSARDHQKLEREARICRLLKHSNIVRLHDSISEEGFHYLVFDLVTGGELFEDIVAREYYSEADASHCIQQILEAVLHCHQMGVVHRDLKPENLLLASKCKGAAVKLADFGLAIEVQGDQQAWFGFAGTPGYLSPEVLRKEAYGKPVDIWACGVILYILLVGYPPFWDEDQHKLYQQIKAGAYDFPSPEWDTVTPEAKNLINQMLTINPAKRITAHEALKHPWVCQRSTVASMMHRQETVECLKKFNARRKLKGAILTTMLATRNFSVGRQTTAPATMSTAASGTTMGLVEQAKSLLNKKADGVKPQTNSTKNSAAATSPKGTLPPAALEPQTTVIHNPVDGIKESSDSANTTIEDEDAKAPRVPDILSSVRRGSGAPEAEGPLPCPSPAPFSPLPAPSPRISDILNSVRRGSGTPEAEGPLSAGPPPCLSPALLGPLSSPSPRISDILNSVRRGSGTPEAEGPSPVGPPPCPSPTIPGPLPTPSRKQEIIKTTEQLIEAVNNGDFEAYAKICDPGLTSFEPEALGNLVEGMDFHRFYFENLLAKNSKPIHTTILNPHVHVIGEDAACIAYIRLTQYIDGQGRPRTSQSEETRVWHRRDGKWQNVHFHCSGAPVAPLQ", "conditions": "at 10 µM"}, "[8]": {"biological_target": "RAC-alpha serine/threonine-protein kinase (Homo sapiens, UniProt P31749)", "sequence (P31749 whole entry)": "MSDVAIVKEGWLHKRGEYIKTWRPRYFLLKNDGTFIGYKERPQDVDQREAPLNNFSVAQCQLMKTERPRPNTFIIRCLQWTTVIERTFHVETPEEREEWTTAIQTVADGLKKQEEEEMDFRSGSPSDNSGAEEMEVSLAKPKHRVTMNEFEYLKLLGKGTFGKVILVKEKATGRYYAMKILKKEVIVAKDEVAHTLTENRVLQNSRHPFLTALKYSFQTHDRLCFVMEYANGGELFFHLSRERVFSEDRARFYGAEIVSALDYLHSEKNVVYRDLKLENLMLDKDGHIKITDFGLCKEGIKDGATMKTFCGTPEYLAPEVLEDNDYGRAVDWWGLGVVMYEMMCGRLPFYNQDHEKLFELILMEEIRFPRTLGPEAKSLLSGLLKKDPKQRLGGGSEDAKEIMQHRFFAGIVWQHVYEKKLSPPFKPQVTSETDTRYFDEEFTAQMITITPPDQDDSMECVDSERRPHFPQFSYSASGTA", "assay": "Selectivity interaction (Upstate Kinase Profiler service (Millipore)) EUB0000056c AKT1", "conditions": "at 1 µM"}, "[9]": {"biological_target": "Mu-type opioid receptor (Homo sapiens, UniProt P35372)", "assay": "Selectivity interaction (Opioid Mu GTPgS agonist assay ) EUB0000877a OPRM1"}, "[10]": {"biological_target": "Calcium/calmodulin-dependent protein kinase type II subunit delta (Homo sapiens) (UniProt Q13557)", "sequence (Q13557 whole entry)": "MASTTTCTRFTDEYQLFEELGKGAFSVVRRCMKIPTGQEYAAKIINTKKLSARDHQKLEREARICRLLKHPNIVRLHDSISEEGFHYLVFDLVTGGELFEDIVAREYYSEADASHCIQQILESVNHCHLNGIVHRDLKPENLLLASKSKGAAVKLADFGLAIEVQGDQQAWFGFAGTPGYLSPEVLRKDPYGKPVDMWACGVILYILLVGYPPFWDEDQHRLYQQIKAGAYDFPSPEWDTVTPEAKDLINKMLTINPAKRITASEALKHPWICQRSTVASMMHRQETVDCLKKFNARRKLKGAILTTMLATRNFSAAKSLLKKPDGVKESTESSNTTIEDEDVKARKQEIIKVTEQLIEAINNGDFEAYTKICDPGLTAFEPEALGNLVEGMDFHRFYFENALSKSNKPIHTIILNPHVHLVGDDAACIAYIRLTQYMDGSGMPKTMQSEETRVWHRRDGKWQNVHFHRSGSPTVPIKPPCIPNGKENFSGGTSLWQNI", "assay": "Selectivity interaction (Kinase panel (DSF assay)) EUB0001558a CAMK2D"}, "[11]": {"biological_target": "NT-3 growth factor receptor (Homo sapiens, UniProt Q16288)", "conditions": "at 10 µM"}}}
{"molecule": "CNCCN1CCC(c2cc(CN(C)C(=O)c3cccc(Oc4ccccc4)c3)ccn2)CC1", "values": [{"measurement": "% of growth rate", "setting": "[1]", "result": -24.1, "unit": "%"}]}
{"molecule": "Cc1cc(F)c(C(=O)Nc2cccc(-c3nncn3C(C)C)n2)cc1-n1cnc(C2CC2)c1", "values": [{"measurement": "% of control", "setting": "[2]", "result": 81, "unit": "%"}, {"measurement": "% of control", "setting": "[3]", "result": 96, "unit": "%"}]}
{"molecule": "Nc1cnc(N2CCc3cc(S(=O)(=O)Nc4c(F)cc(Cl)cc4F)cc(N4CCCC4=O)c32)nc1", "note": "[TP-020n]", "values": [{"measurement": "% of control", "setting": "[4]", "result": 100, "unit": "%"}]}
{"molecule": "Cc1cc(CN)cc(C)c1-c1ncn(C)c1-c1cncn1C", "values": [{"measurement": "dTM", "setting": "[5]", "result": -1.98, "unit": "K"}, {"measurement": "dTagg", "setting": "[6]", "result": -0.2, "unit": "K"}]}
{"molecule": "Cc1cc([C@@H](C)Nc2ccccc2C(=O)O)c2nc(N3CCOCC3)cc(=O)n2c1", "note": "[AZD-6482]", "values": [{"measurement": "% of control", "setting": "[7]", "result": 83, "unit": "%"}]}
{"molecule": "Cc1ccc(-c2ccc3c(ccc4sc5c(c43)NC[C@@H](C)NC5=O)n2)cn1", "values": [{"measurement": "% of inhibition", "setting": "[8]", "result": 5, "unit": "%"}]}
{"molecule": "CCC(=O)N1CC[C@H](Nc2ncnc3c2CN(c2cnc(OC)c(C(F)(F)F)c2)CC3)C1", "note": "[LENIOLISIB]", "values": [{"measurement": "IC50", "setting": "[9]", "result": "> 30", "unit": "µM"}]}
{"molecule": "CC(C)(O)[C@H](F)CN1Cc2cc(NC(=O)c3cnn4cccnc34)c(N3CCOCC3)cc2C1=O", "values": [{"measurement": "dTM", "setting": "[10]", "result": 0.3, "unit": "K"}]}
{"molecule": "CCN(CC)CCCCNc1ncc2cc(-c3cc(OC)cc(OC)c3)c(NC(=O)NC(C)(C)C)nc2n1", "values": [{"measurement": "% of control", "setting": "[11]", "result": 100, "unit": "%"}]}
